How the values were obtained:
Format in all cases: in vivo
[1] = system: Plutella xylostella (Diamondback Moth); assay: Example B14: activity against Plutella xylostella (diamondback moth), 96-well artificial diet; conditions: 216 h, application rate 500 ppm, 9 days after infestation
Experimental: Example B14: Activity Against Plutella xylostella (Diamondback Moth)
96-well microtiter plates containing artificial diet were treated with aqueous test solutions, prepared from 10,000 ppm DMSO stock solutions, by a liquid handling robot. After drying, eggs (30 per well) were infested onto a netted lid which was suspended above the diet. The eggs hatch and L1 larvae move down to the diet. The samples were assessed for mortality 9 days after infestation.
The following compounds gave an effect of at least 80% average mortality at an application rate of 500 ppm: […]

[2] = system: Myzus persicae (Green Peach Aphid); assay: Example B13: activity against Myzus persicae (green peach aphid), 96-well sucrose solution; conditions: 120 h, application rate 50 ppm, 5 days after infestation
Text: Example B13: Activity Against Myzus persicae (Green Peach Aphid)
Test compounds prepared from 10,000 ppm DMSO stock solutions were applied by a liquid handling robot into 96-well microtiter plates and mixed with a sucrose solution. Parafilm was stretched over the 96-well microtiter plate and a plastic stencil with 96 holes was placed onto the plate. Aphids were sieved into the wells directly onto the Parafilm. The infested plates were closed with a gel blotting card and a second plastic stencil and then turned upside down. The samples were assessed for mortality 5 days after infestation.

[3] = system: Plutella xylostella (Diamond Back Moth); assay: Example B5: Plutella xylostella (diamond back moth), artificial diet, 24-well, eggs; conditions: 192 h, application rate 200 ppm, 8 days after infestation, read-out: effect in at least one of the two categories (mortality or growth inhibition)
Experimental: Example B5: Plutella xylostella (Diamond Back Moth)
24-well microtiter plates with artificial diet were treated with aqueous test solutions prepared from 10,000 ppm DMSO stock solutions by pipetting. After drying, Plutella eggs were pipetted through a plastic stencil onto a gel blotting paper and the plate was closed with it. The samples were assessed for mortality and growth inhibition in comparison to untreated samples 8 days after infestation. The following compounds gave an effect of at least 80% in at least one of the two categories (mortality or growth inhibition) at an application rate of 200 ppm: […]

[4] = system: Diabrotica Balteata (Corn Root Worm); assay: Example B1: Diabrotica balteata (corn root worm), maize sprouts sprayed, L2 larvae; conditions: 96 h, application rate 200 ppm, 4 days after infestation, read-out: effect in at least one of the two categories (mortality or growth inhibition)
Experimental: Example B1: Diabrotica Balteata (Corn Root Worm)
Maize sprouts placed onto an agar layer in 24-well microtiter plates were treated with aqueous test solutions prepared from 10,000 ppm DMSO stock solutions by spraying. After drying, the plates were infested with L2 larvae (6 to 10 per well). The samples were assessed for mortality and growth inhibition in comparison to untreated samples 4 days after infestation.
The following compounds gave an effect of at least 80% in at least one of the two categories (mortality or growth inhibition) at an application rate of 200 ppm: […]

[5] = system: Spodoptera littoralis (Egyptian Cotton Leaf Worm); assay: Example B9: Spodoptera littoralis (Egyptian cotton leaf worm), cotton leaf discs sprayed, L1 larvae; conditions: foliar, 72 h, application rate 200 ppm, 3 days after infestation
Experimental: Example B9: Spodoptera littoralis (Egyptian Cotton Leaf Worm)
Cotton leaf discs were placed onto agar in 24-well microtiter plates and sprayed with aqueous test solutions prepared from 10,000 ppm DMSO stock solutions. After drying the leaf discs were infested with five L1 larvae. The samples were assessed for mortality, anti-feeding effect, and growth inhibition in comparison to untreated samples 3 days after infestation. Control of Spodoptera littoralis by a test sample is given when at least one of the three categories (i.e. mortality, anti-feedant effect, and growth inhibition) is higher than the untreated sample.

Row | Structure (SMILES) | mortality at 500 ppm [1] [%] | mortality at 50 ppm [2] [%] | percent effect (mortality or growth inhibition) at 200 ppm [3] [%] | percent effect (mortality or growth inhibition) at 200 ppm [4] [%] | percent control (mortality, anti-feedant effect or growth inhibition) at 200 ppm [5] [%]
1 | CC(c1ncnn1-c1ncccn1)N(CC1CC1)C(=O)c1cccc(-c2cccc(C(F)(F)F)c2)n1 (centres unmarked) [P15, N-(cyclopropylmethyl)-N-[1-(2-pyrimidin-2-yl-1,2,4-triazol-3-yl)ethyl]-6-[3-(trifluoromethyl)phenyl]pyridine-2-carboxamide] | ≥ 80 | ≥ 80 | ≥ 80 |  | 
2 | CC(c1ncnn1-c1ncccn1)N(CC1CC1)C(=O)c1ccc(-n2ccc(C(F)(F)F)n2)cc1 (centres unmarked) [P1, N-(cyclopropylmethyl)-N-[1-(2-pyrimidin-2-yl-1,2,4-triazol-3-yl)ethyl]-4-[3-(trifluoromethyl)pyrazol-1-yl]benzamide] | ≥ 80 |  |  |  | 
3 | CC(c1ncnn1-c1ncccn1)N(CC1CC1)C(=O)c1ccc(C2(C#N)CC2)cc1 (centres unmarked) [P2, 4-(1-cyanocyclopropyl)-N-(cyclopropylmethyl)-N-[1-(2-pyrimidin-2-yl-1,2,4-triazol-3-yl)ethyl]benzamide] | ≥ 80 |  |  |  | 
4 | CC(c1ncnn1-c1ncccn1)N(CC1CC1)C(=O)c1cc(C(F)(F)F)cc(C(F)(F)C2CCC2)c1 (centres unmarked) [P71, 3-[cyclobutyl(difluoro)methyl]-N-(cyclopropylmethyl)-N-[1-(2-pyrimidin-2-yl-1,2,4-triazol-3-yl)ethyl]-5-(trifluoromethyl)benzamide] | ≥ 80 |  |  |  | 
5 | CC(c1ncnn1-c1ncccn1)N(CC1CC1)C(=O)c1cc(-c2cccc(C(F)(F)F)c2)ccn1 (centres unmarked) [P9, N-(cyclopropylmethyl)-N-[1-(2-pyrimidin-2-yl-1,2,4-triazol-3-yl)ethyl]-4-[3-(trifluoromethyl)phenyl]pyridine-2-carboxamide] | ≥ 80 |  | ≥ 80 |  | 
6 | CC(c1ncnn1-c1ncccn1)N(CC1CC1)C(=O)c1cc(C(F)(F)F)cc(C2(C)CC2)c1 (centres unmarked) [P38, N-(cyclopropylmethyl)-3-(1-methylcyclopropyl)-N-[1-(2-pyrimidin-2-yl-1,2,4-triazol-3-yl)ethyl]-5-(trifluoromethyl)benzamide] | ≥ 80 |  | ≥ 80 |  | 
7 | CC(c1ncnn1-c1ncccn1)N(CC1CC1)C(=O)c1cc(C(F)(F)F)cc(C(C)(C)C#N)n1 (centres unmarked) [P31, 6-(1-cyano-1-methyl-ethyl)-N-(cyclopropylmethyl)-N-[1-(2-pyrimidin-2-yl-1,2,4-triazol-3-yl)ethyl]-4-(trifluoromethyl)pyridine-2-carboxamide] | ≥ 80 | ≥ 80 | ≥ 80 | ≥ 80 | 
8 | CC(c1ncnn1-c1ncccn1)N(CC1CC1)C(=O)c1cncc(-c2cccc(C(F)(F)F)c2)c1 (centres unmarked) [P8, N-(cyclopropylmethyl)-N-[1-(2-pyrimidin-2-yl-1,2,4-triazol-3-yl)ethyl]-5-[3-(trifluoromethyl)phenyl]pyridine-3-carboxamide] |  |  | ≥ 80 |  | 
9 | CC(c1ncnn1-c1ncccn1)N(CC1CC1)C(=O)c1cc(OC2CCC2)cc(C(F)(F)F)c1 (centres unmarked) [P48, 3-(cyclobutoxy)-N-(cyclopropylmethyl)-N-[1-(2-pyrimidin-2-yl-1,2,4-triazol-3-yl)ethyl]-5-(trifluoromethyl)benzamide] | ≥ 80 |  |  |  | 
10 | CC(NC(=O)c1cc(-n2ccc(Cl)n2)nc(C(F)(F)F)c1)c1ncnn1-c1ncccn1 (centres unmarked) [P70, 2-(3-chloropyrazol-1-yl)-N-[1-(2-pyrimidin-2-yl-1,2,4-triazol-3-yl)ethyl]-6-(trifluoromethyl)pyridine-4-carboxamide] | ≥ 80 |  | ≥ 80 |  | ≥ 80
11 | CC(c1ncnn1-c1ncccn1)N(CC1CC1)C(=O)c1cc(Cl)cc(C(C)(C)C#N)n1 (centres unmarked) [P28, 4-chloro-6-(1-cyano-1-methyl-ethyl)-N-(cyclopropylmethyl)-N-[1-(2-pyrimidin-2-yl-1,2,4-triazol-3-yl)ethyl]pyridine-2-carboxamide] | ≥ 80 |  |  |  | 
12 | CC(c1ncnn1-c1ncccn1)N(CC1CC1)C(=O)c1ccc(-c2ccc(F)cc2)cc1 (centres unmarked) [P5, N-(cyclopropylmethyl)-4-(4-fluorophenyl)-N-[1-(2-pyrimidin-2-yl-1,2,4-triazol-3-yl)ethyl]benzamide] | ≥ 80 |  | ≥ 80 |  | 
13 | CC(NC(=O)c1cc(OC(C)(C)C#N)cc(C(F)(F)F)c1)c1ncnn1-c1ncccn1 (centres unmarked) [P56, 3-(1-cyano-1-methyl-ethoxy)-N-[1-(2-pyrimidin-2-yl-1,2,4-triazol-3-yl)ethyl]-5-(trifluoromethyl)benzamide] |  |  | ≥ 80 | ≥ 80 | ≥ 80
14 | CC(c1ncnn1-c1ncccn1)N(CC1CC1)C(=O)c1cc(N2CC(F)(F)C2)cc(C(F)(F)F)c1 (centres unmarked) [P20, N-(cyclopropylmethyl)-3-(3,3-difluoroazetidin-1-yl)-N-[1-(2-pyrimidin-2-yl-1,2,4-triazol-3-yl)ethyl]-5-(trifluoromethyl)benzamide] | ≥ 80 | ≥ 80 |  |  | 
15 | CC(c1ncnn1-c1ncccn1)N(CC1CC1)C(=O)c1cnc(C2CC2)nc1 (centres unmarked) [P11, 2-cyclopropyl-N-(cyclopropylmethyl)-N-[1-(2-pyrimidin-2-yl-1,2,4-triazol-3-yl)ethyl]pyrimidine-5-carboxamide] |  | ≥ 80 |  |  | 
16 | CC(c1ncnn1-c1ncccn1)N(CC1CC1)C(=O)c1ccc(-n2ccccc2=O)cc1 (centres unmarked) [P18, N-(cyclopropylmethyl)-4-(2-oxo-1-pyridyl)-N-[1-(2-pyrimidin-2-yl-1,2,4-triazol-3-yl)ethyl]benzamide] |  | ≥ 80 |  |  | 
17 | CC(NC(=O)c1cc(-c2cncc(Cl)c2)cc(C(F)(F)F)c1)c1ncnn1-c1ncccn1 (centres unmarked) [P63, 3-(5-chloro-3-pyridyl)-N-[1-(2-pyrimidin-2-yl-1,2,4-triazol-3-yl)ethyl]-5-(trifluoromethyl)benzamide] |  |  | ≥ 80 |  | 
18 | CC(c1ncnn1-c1ncccn1)N(CC1CC1)C(=O)c1ccc(N2CCCCC2=O)cc1 (centres unmarked) [P17, N-(cyclopropylmethyl)-4-(2-oxo-1-piperidyl)-N-[1-(2-pyrimidin-2-yl-1,2,4-triazol-3-yl)ethyl]benzamide] |  | ≥ 80 |  |  | 
19 | CC(c1ncnn1-c1ncccn1)N(CC1CC1)C(=O)c1cccc(-c2ccc(F)cc2)c1 (centres unmarked) [P4, N-(cyclopropylmethyl)-3-(4-fluorophenyl)-N-[1-(2-pyrimidin-2-yl-1,2,4-triazol-3-yl)ethyl]benzamide] | ≥ 80 |  |  |  | 
20 | CC(c1ncnn1-c1ncccn1)N(CC1CC1)C(=O)c1cc(OCC2CC2)cc(C(F)(F)F)c1 (centres unmarked) [P47, 3-(cyclopropylmethoxy)-N-(cyclopropylmethyl)-N-[1-(2-pyrimidin-2-yl-1,2,4-triazol-3-yl)ethyl]-5-(trifluoromethyl)benzamide] | ≥ 80 | ≥ 80 | ≥ 80 |  | 
21 | CC(c1ncnn1-c1ncccn1)N(CC1CC1)C(=O)c1ccc(Oc2ccc(C(F)(F)F)cc2)cc1 (centres unmarked) [P16, N-(cyclopropylmethyl)-N-[1-(2-pyrimidin-2-yl-1,2,4-triazol-3-yl)ethyl]-4-[4-(trifluoromethyl)phenoxy]benzamide] |  |  |  | ≥ 80 | 
22 | CC(c1ncnn1-c1ncccn1)N(CC1CC1)C(=O)c1cccc(-c2ccc(C(F)(F)F)cc2)c1 (centres unmarked) [P3, N-(cyclopropylmethyl)-N-[1-(2-pyrimidin-2-yl-1,2,4-triazol-3-yl)ethyl]-3-[4-(trifluoromethyl)phenyl)benzamide] | ≥ 80 |  | ≥ 80 |  | 
23 | CC(c1ncnn1-c1ncccn1)N(CC1CC1)C(=O)c1cc(-c2ccc(F)cc2)cc(C(F)(F)F)c1 (centres unmarked) [P36, N-(cyclopropylmethyl)-3-(4-fluorophenyl)-N-[1-(2-pyrimidin-2-yl-1,2,4-triazol-3-yl)ethyl]-5-(trifluoromethyl)benzamide] | ≥ 80 |  | ≥ 80 |  | ≥ 80

— patent publication US20210267203A1, “PESTICIDALLY ACTIVE AZOLE-AMIDE COMPOUNDS” (SYNGENTA PARTICIPATIONS AG, priority 2018, published 2021)
